Test results reported in US9945845B2, “Methods of screening using amphibians” (priority 2009, dated 2018).
Entries after “also recorded” stand apart in the source; their conditions may differ.

What was measured:
[1] = system: transgenic zebrafish expressing a fluorescent vascular reporter gene; conditions: Tran et al., 2007, cited from earlier work
[2] = system: LEC; assay: LEC cell proliferation assay; assay type: cell-based, human; conditions: 10 μM in 0.1% DMSO, 48 hours
How it was run: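 HUVEC and LEC in EBM with 20% FBS, hydrocortisone and dibutyryl-cAMP were treated with compound at 10 μM in 0.1% DMSO for 48 hours. Viable cells read by fluorescence, in five replicates.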

[3] = system: Xenopus embryos
How it was run: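 Stage 31 (37 hpf) Xenopus embryos, five per well, exposed to 20 µM compound in 1% DMSO at 23 °C for 4 days. Edema, lethality and other external phenotypes were scored daily by two investigators at stages 39, 41, 45 and 47.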

[4] = system: LEC; assay: cells; assay type: cell-based, human; conditions: 1 μM in 0.1% DMSO, overnight
How it was run: (§1)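 HUVEC and LEC in EBM with 20% FBS, hydrocortisone and dibutyryl-cAMP, up to eleven passages, treated overnight at 37 °C with compound at 1 μM in 0.1% DMSO, then fixed in 4% paraformaldehyde. Read-out: total tube length (μm) per area over three hotspot images per well, triplicate wells.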

[5] = system: blood vessel development and/or lymphangiogenesis in Xenopus embryos; assay type: in vivo, Xenopus laevis
How it was run: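 Albino Xenopus embryos treated at 20 μM final (from 10-mM DMSO stocks) in screening medium, 7 per well, from stage 31 (37 hpf) to stage 35/36 (50 hpf) or 42 (80 hpf). Fixed in 4% paraformaldehyde and scored by whole-mount in situ hybridization: vasculogenesis and intersomitic vein angiogenesis at stage 35/36, lymph vessel development at stage 42.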

[6] = system: HUVEC; assay: HUVEC tube formation assay; assay type: cell-based, human; conditions: 1 μM in 0.1% DMSO, overnight
How it was run: as §1

## CN(C)c1ccc(C=C2C(=O)Nc3ccccc32)cc1 [SU 4312, 3-(4-Dimethylaminobenzylidenyl)-2-indolinone]
[1]
  recovery as antiangiogenic compound in the transgenic zebrafish screen: recovery
[1]; at higher concentrations (>30 μM)
  antiangiogenic effects in zebrafish: moderate antiangiogenic effects
[2]
  LEC proliferation: O (O, inactive or marginal effects (85-115% of control);)
[3]; 20 μM, known antiangiogenic compounds
  scored in the phenotypic Xenopus screens: active
[3]; embryonic phenotype in the primary screen
  Embr. phen.: EDE
[3]; embryonic stage
  Type of edema Pronephric: 45 embryonic stages according to Nieuwkoop and Faber (NF)
[3]; embryonic stage, * = causing bulging eyes, # = bilateral, causing narrow-set eyes
  Type of edema Periocular: 45 embryonic stages according to Nieuwkoop and Faber (NF)
[3]; embryonic stage, ‡ = edemas also detected in the gut
  Type of edema Ventral: 45 embryonic stages according to Nieuwkoop and Faber (NF)
[3]; onset of edema, 20 μM, 1% DMSO, treatment from stage 31, Nieuwkoop & Faber stage
  Onset (NF): 45 NF
[4]
  LEC tube formation: O (O, inactive or marginal effects (85-115% of control);)
[5]; 20 μM from stage 31, fixed at stage 35/36
  blood vessel development phenotype (apj expression, in words): largely unaffected; also recorded: normal angiogenic ISV outgrowth
[5]; 20 μM from stage 31, fixed at stage 42
  lymph vessel development phenotype (vegfr3 expression, in words): inhibiting preferentially lymphatic vascular development; also recorded: lymphangiogenesis was largely suppressed; also recorded: robustly blocks lymphangiogenesis
[5]; Xenopus embryos
  Blood vessel phenotype: normal
[5]; anterior lymph heart, Xenopus embryos
  ALH phenotype: impaired
[5]; anterior lymph sac, Xenopus embryos
  ALS phenotype: impaired
[5]; posterior lymph vessels, Xenopus embryos
  PLV phenotype: hypoplastic
[6]
  HUVEC tube formation: O (O, inactive or marginal effects (85-115% of control);)
